Where a name gives a salt, the structure may show the parent alone. Read-outs that look alike come from different tables or passages of the source.
Assays:
Escherichia coli W-MB-60 [1] = experiment: disc zone bioassay of derivatives; type: cell-based; conditions: WMB60, 100γ/ml, read-out: disc zone size
Description: (§1) Bioassay: the disc zone sizes in the following table are expressed in mm. for 100γ/ml of antibiotic.
(§2) Bioassay: The disc zone sizes in the following table are expressed in mm. for equal concentrations of antibiotic.

Proteus vulgaris [2] = experiment: disc-plate bioassay using Proteus vulgaris; conditions: for zone of inhibition at 100 µg/mL: read-out: disc zone size
[3] = system: Salmonella gallinarum MB-1287; experiment: disc zone bioassay of derivatives; type: cell-based; conditions: Salmonella enterica, 100γ/ml, read-out: disc zone size
Description: (§3) Bioassay: the disc zone sizes in the following table are expressed in mm. for equal concentrations of antibiotic.
as §2

Vibrio percolans MB-1272 = experiment: disc-plate bioassay using Vibrio percolans; conditions: Comamonas terrigena; for zone of inhibition at 100 µg/mL: MB1272, read-out: disc zone size, 100γ/ml
[4] = system: Pseudomonas stutzeri MB-1231; experiment: disc zone bioassay of derivatives; type: cell-based; conditions: Stutzerimonas stutzeri, MB1231, 100γ/ml; read-out: disc zone size
Description: as §1, §3, §2

[5] = system: Aerobacter cloacae MB-2646; experiment: enzymatic inactivation by cell-free extract; conditions: for Antibiotic Activity Remaining: start 250 μg/ml
Description: The ability of Antibiotic 810A and cephalosporin C to withstand the degradative effect of the culture Aerobacter cloacae (MB-2646) was also determined. This culture is gram-negative and resistant to cephalosporin C. […] The source of the inactivating substance is a 1:160 dilution of the filtrate of an 18 hour 37° C. shake culture of Aerobacter cloacae MB-2646 in nutrient broth containing 0.2% yeast extract. Table XIV, infra, indicates the percent inactivation of Antibiotic 810A, cephalothin, cephaloridine and cephalosporin C on Vibrio percolans (MB-1272) via this method:
Using the same assay procedure as described above, Table XV, infra, indicates the relative resistance of Antibiotic 810A to enzymatic inactivation by Aerobacter cloacae. The starting concentration is 250 μg./ml. Results are expressed in μg./ml.

[6] = system: Alcaligenes faecalis MB-9; experiment: bacterial inactivation by washed bacterial cells; conditions: start 4 mg/ml
Proteus mirabilis 241 = experiment: bacterial inactivation; conditions: 4 hours; assayed on B. subtilis (MB-964)
Description: (§4) These cultures are: Escherichia coli 236, Proteus morganii 251, Proteus morganii 356 and Proteus mirabilis 241. […] In conducting the assay, individual mixtures of the organisms and one of the antibiotics were sampled after four hours incubation and assayed for residual antibiotic activity. The procedure is the same assay method as described above against Alcaligenes faecalis MB-9 and A. viscosus MB-12.

Proteus morganii 251 = experiment: bacterial inactivation; conditions: 4 hours; assayed on B. subtilis (MB-964)
Description: as §4

Proteus morganii 356 [7] = experiment: bacterial inactivation; conditions: 4 hours; assayed on B. subtilis (MB-964)
Description: as §4

Escherichia coli 236 = experiment: bacterial inactivation; conditions: 4 hours; assayed on B. subtilis (MB-964)
Description: as §4

[8] = system: Alcaligenes viscosus MB-12; experiment: bacterial inactivation by washed bacterial cells; conditions: 4 hour; assayed on B. subtilis (MB-964); start 4 mg/ml
Proteus morganii 3202 = experiment: mouse protection test; type: in vivo, mice; design: dose or concentration left out as unconfirmed; conditions: × 2 doses, subcutaneous
Description: Methods: The method employed in this characterization is as follows: Female white Swiss mice, average weight 20-23 grams, were infected intraperitoneally with 3-20 times the number of organisms calculated to be lethal for 50% of the infected control animals (3-20 LD50 doses). At the time of infection and again 6 hours later, therapy was given by the designated route. Controls of the virulence of the culture and the toxicity of the antibiotic for uninfected mice were included in the tests. Seven days after infection the test was considered complete and the amount of the antibiotic (I) that would be required to protect 50% of the infected and treated animals was calculated by the method of Knudsen and Curtis; J. Amer. Stat. Assoc. Vol. 42: page 282 (1947).
The method employed in these studies is the same as described above with regard to the in vivo characterization of 810A. The results of these tests are described below in Table XIb:
Administration was by subcutaneous injection. At the completion of the test period, usually seven days after administration, the amount of product required to protect 50% of the mice (ED50) from this otherwise fatal injection was calculated: […]

Proteus morganii 356 [9] = experiment: mouse protection test, clinical isolate; type: in vivo, mice; conditions: subcutaneous × 2 doses
Description: In addition to the aforementioned in vivo trials of the product, a clinical isolate of Proteus morganii 356 which is resistant to cephalosporins and capable of degrading cephalosporin C, was employed in a mouse protection test performed in the same manner as reported above.

[10] = system: Escherichia coli, Chloramphenicol-resistant; experiment: cross-resistance, disc-plate agar diffusion; type: cell-based; conditions: read-out: Inhibition Zone Diameter
Vibrio percolans = experiment: disc-plate agar diffusion, antibacterial spectrum; type: cell-based; conditions: Comamonas terrigena; 166 μg/ml; 27 °C; 7 mm = no zone; read-out: Inhibition Zone Diameter
Escherichia coli W-MB-60 [11] = experiment: special effects spectrum, disc-plate agar diffusion; type: cell-based; conditions: WMB60, 166 μg/ml, read-out: Inhibition Zone Diameter
Sarcina lutea = experiment: disc-plate agar diffusion, antibacterial spectrum; type: cell-based; conditions: Micrococcus luteus; 166 μg/ml; 25 °C; 7 mm = no zone; read-out: Inhibition Zone Diameter
Pseudomonas aeruginosa = experiment: disc-plate agar diffusion, antibacterial spectrum; type: cell-based; conditions: 166 μg/ml, 25 °C, 7 mm = no zone, read-out: Inhibition Zone Diameter
Brucella bronchiseptica = experiment: microbe, parasite or virus in culture; type: cell-based; conditions: Bordetella bronchiseptica, read-out: Inhibition Zone Diameter
[12] = system: Escherichia coli, Oxytetracycline-resistant; experiment: cross-resistance, disc-plate agar diffusion; type: cell-based; conditions: read-out: Inhibition Zone Diameter
Alcaligenes faecalis = experiment: disc-plate agar diffusion, antibacterial spectrum; type: cell-based; conditions: 166 μg/ml, 37 °C, 7 mm = no zone, read-out: Inhibition Zone Diameter
[13] = system: Escherichia coli, Neomycin-resistant; experiment: cross-resistance, disc-plate agar diffusion; type: cell-based; conditions: read-out: Inhibition Zone Diameter
Streptococcus faecalis = experiment: disc-plate agar diffusion, antibacterial spectrum; type: cell-based; conditions: Enterococcus faecalis; 166 μg/ml; 37 °C; 7 mm = no zone; read-out: Inhibition Zone Diameter
[14] = system: Escherichia coli, Viomycin-resistant; experiment: cross-resistance, disc-plate agar diffusion; type: cell-based; conditions: read-out: Inhibition Zone Diameter
Proteus vulgaris [15] = experiment: disc-plate agar diffusion, antibacterial spectrum; type: cell-based; conditions: 166 μg/ml, 37 °C, 7 mm = no zone, read-out: Inhibition Zone Diameter
[16] = system: Staphylococcus aureus (Streptomycin-Streptothricin-resistant); experiment: disc-plate agar diffusion, antibacterial spectrum; type: cell-based; conditions: read-out: Inhibition Zone Diameter
[17] = system: Escherichia coli, Streptothricin-resistant; experiment: cross-resistance, disc-plate agar diffusion; type: cell-based; conditions: read-out: Inhibition Zone Diameter
Staphylococcus aureus = experiment: disc-plate agar diffusion, antibacterial spectrum; type: cell-based; conditions: 166 μg/ml, 25 °C, 7 mm = no zone, read-out: Inhibition Zone Diameter
Serratia marcescens = experiment: disc-plate agar diffusion, antibacterial spectrum; type: cell-based; conditions: 166 μg/ml, 25 °C, 7 mm = no zone, read-out: Inhibition Zone Diameter
[18] = 2 hour, assayed on V. percolans (MB-1272)
[19] = 2 hour, assayed on B. subtilis 964
[20] = 2 hour, assayed on V. percolans 1272

CO[C@@]1(NC(=O)CCC[C@@H](N)C(=O)O)C(=O)N2C(C(=O)O)=C(COC(N)=O)CS[C@@H]21 [Disodium Salt of 842A]
zone of inhibition at 100 µg/mL (Escherichia coli W-MB-60 [1]): 18 mm | zone of inhibition at 100 µg/mL (Proteus vulgaris [2]): 27 mm | zone of inhibition at 100 µg/mL [3]: 27 mm | zone of inhibition at 100 µg/mL (Vibrio percolans MB-1272): 18 mm | zone of inhibition at 100 µg/mL [4]: 22 mm

CC(=O)OCC1=C(C(=O)O)N2C(=O)[C@@H](NC(=O)CCC[C@@H](N)C(=O)O)[C@H]2SC1 [Cephalosporin C, reference compound]
Percent Inactivation After Incubation With Cell-Free Extract [5, 18]: 96% | Percent Inactivation After Incubation With Washed Bacterial Cells ([6]; 3 hour, assayed on B. subtilis (MB-964)): > 99% | Percent Inactivation After Incubation With Washed Bacterial Cells ([6]; 3 hour, assayed on V. percolans (MB-1272)): > 99% | Percent Inactivation After Incubation With Washed Bacterial Cells ([6]; 4 hour, assayed on B. subtilis (MB-964)): > 99% | percent inactivation (Proteus mirabilis 241): 72% | percent inactivation (Proteus morganii 251): > 99% | percent inactivation (Proteus morganii 356 [7]): > 99% | percent inactivation (Escherichia coli 236): > 99% | Percent Inactivation After Incubation With Washed Bacterial Cells [8]: > 99%

COC(=Cc1ccc(O)cc1)C(=O)OCC1=C(C(=O)O)N2C(=O)[C@](NC(=O)CCC[C@@H](N)C(=O)O)(OC)[C@H]2SC1 [7β-(D-5-amino-5-carboxyvaleramido)-3-(α-methoxy-p-hydroxycinnamoyloxymethyl)-7-methoxy-3-cephem-4-carboxylic acid]
IC (25 mm zone) (Proteus vulgaris [2]; read-out: concentration giving a 25 mm zone (bioassay potency)): 167 µg/mL

CO[C@@]1(NC(=O)CCC[C@@H](N)C(=O)O)C(=O)N2C(C(=O)O)=C(CSC(=N)N)CS[C@@H]21 [S-[7β-(D-5-amino-5-carboxyvaleramido)-4-carboxy-7-methoxy-3-cephem-3-yl-methyl]thiouronium]
zone of inhibition at 100 µg/mL (Proteus vulgaris [2]): 17 mm | zone of inhibition at 100 µg/mL [3]: 23 mm | zone of inhibition at 100 µg/mL (Vibrio percolans MB-1272): 27 mm | zone of inhibition at 100 µg/mL [4]: 22 mm

CO[C@@]1(NC(=O)CCC[C@@H](N)C(=O)O)C(=O)N2C(C(=O)O)=C(COC(N)=O)CS[C@@H]21
IC (25 mm zone) (Vibrio percolans MB-1272; MB1272, read-out: concentration giving a 25 mm zone, Vibrio percolans): 8 µg/mL

CO[C@@]1(NC(=O)CCC[C@@H](N)C(=O)O)C(=O)N2C(C(=O)O)=C(CN)CS[C@@H]21 [7β-(D-5-amino-5-carboxyvaleramido)-3-(aminomethyl)-7-methoxy-3-cephem-4-carboxylic acid]
zone of inhibition at 100 µg/mL [3]: 21 mm | zone of inhibition at 5 µg/mL (Vibrio percolans MB-1272; MB1272, read-out: disc zone size, 5γ/ml): 20 mm | zone of inhibition at 100 µg/mL [4]: 21 mm

CO[C@@]1(NC(=O)CCC[C@@H](N)C(=O)O)C(=O)N2C(C(=O)O)=C(CSc3nc(C)cs3)CS[C@@H]21 [7β-(D-5-amino-5-carboxyvaleramido)-3-(4-methylthiazol-2-ylmercaptomethyl)-7-methoxy-3-cephem-4-carboxylic acid]
zone of inhibition at 100 µg/mL (Escherichia coli W-MB-60 [1]): 14 mm | zone of inhibition at 100 µg/mL (Vibrio percolans MB-1272): 20 mm | zone of inhibition at 100 µg/mL [4]: 13.5 mm

O=C(Cc1cccs1)N[C@@H]1C(=O)N2C(C(=O)[O-])=C(C[n+]3ccccc3)CS[C@H]12 [Cephaloridine]
Antibiotic Activity Remaining [5, 19]: < 10 µg/mL | Antibiotic Activity Remaining [5, 20]: < 10 µg/mL | Percent Inactivation After Incubation With Cell-Free Extract ([5]; bacterial culture filtrate, 2 h): 96% | protection (Proteus morganii 3202): failed to protect | ED50 (average of Two Trials) (Proteus morganii 356 [9]): 9,270 μg

CO[C@@]1(NC(=O)CCC[C@@H](N)C(=O)O)C(=O)N2C(C(=O)O)=C(COC(N)=O)CS[C@@H]21 [Free Acid]
zone of inhibition at 166 µg/mL [10]: 17 mm | zone of inhibition at 166 µg/mL (Vibrio percolans): 30 mm | zone of inhibition at 166 µg/mL (Escherichia coli W-MB-60 [11]; 0.1 M phosphate buffer pH 7, 25 °C): 29 mm | zone of inhibition at 166 µg/mL (Escherichia coli W-MB-60 [11]; 0.1 M phosphate buffer pH 9, 25 °C): 22 mm | zone of inhibition at 166 µg/mL (Escherichia coli W-MB-60 [11]; human blood plasma 20%, 25 °C): 22 mm | zone of inhibition at 166 µg/mL (Sarcina lutea): 10 mm | zone of inhibition at 166 µg/mL (Pseudomonas aeruginosa): 7 mm | zone of inhibition at 166 µg/mL (Brucella bronchiseptica): 24 mm | zone of inhibition at 166 µg/mL [12]: 23 mm | zone of inhibition at 166 µg/mL (Alcaligenes faecalis): 27 mm | zone of inhibition at 166 µg/mL [13]: 17 mm | zone of inhibition at 166 µg/mL (Streptococcus faecalis): 7 mm | zone of inhibition at 166 µg/mL [14]: 16 mm | zone of inhibition at 166 µg/mL (Proteus vulgaris [15]): 22 mm | zone of inhibition at 166 µg/mL [16]: 11 mm | zone of inhibition at 166 µg/mL [17]: 14 mm | zone of inhibition at 166 µg/mL (Staphylococcus aureus): 7 mm | zone of inhibition at 166 µg/mL (Serratia marcescens): 7 mm

CC(=O)OCC1=C(C(=O)O)N2C(=O)[C@@H](NC(=O)Cc3cccs3)[C@H]2SC1 [Cephalothin]
Percent Inactivation After Incubation With Cell-Free Extract [5, 18]: 66% | Antibiotic Activity Remaining [5, 19]: 140 µg/mL | Antibiotic Activity Remaining [5, 20]: 85 µg/mL | protection (Proteus morganii 3202): failed to protect | ED50 (average of Two Trials) (Proteus morganii 356 [9]): > 20,000 μg
